Test results as given in ChEMBL document CHEMBL4373660, “The synthesis and biological evaluation of novel gardenamide A derivatives as multifunctional neuroprotective agents” (Medchemcomm, 2019).

system: Cortical neurone; assay: (§1) Neuroprotective activity against OGD-induced neurotoxicity in Sprague-Dawley rat cortical neuron assessed as cell survival rate at 0.1 uM pretreated for 24 hrs followed by incubation in oxygen and glucose deprivation medium for 2 hrs followed by exposure to reoxygenation by re-incubating in normoxia condition for 24 hrs by MTT assay (reference value: 58.5 to 61.2 %); type: functional

In order of falling Activity:
1. COC(=O)C1=CN(C)C(=O)[C@@H]2C(CN3CCN(Cc4cccc(C(F)(F)F)c4)CC3)=CC[C@H]12.Cl.Cl  63.3%
2. COC(=O)C1=CN(C)C(=O)[C@@H]2C(CN3CCN(Cc4ccc(C(F)(F)F)cc4)CC3)=CC[C@H]12.Cl.Cl  63%
3. COC(=O)C1=CN(C)C(=O)[C@@H]2C(CN3CCN(Cc4ccc(Cl)cc4)CC3)=CC[C@H]12.Cl.Cl  62.7%
4. COC(=O)C1=CN(C)C(=O)[C@@H]2C(CN3CCN(Cc4cccc(C)c4)CC3)=CC[C@H]12.Cl.Cl  60.8%
5. COC(=O)C1=CN(C(C)C)C(=O)[C@@H]2C(CN3CCN(Cc4cccc(OC)c4)CC3)=CC[C@H]12.Cl.Cl  60.6%
6. COC(=O)C1=CN(C(C)C)C(=O)[C@@H]2C(CN3CCN(Cc4cccc(C)c4)CC3)=CC[C@H]12.Cl.Cl  59%
7. COC(=O)C1=CNC(=O)[C@@H]2C(CO)=CC[C@H]12  59%
8. COC(=O)C1=CN(C(C)C)C(=O)[C@@H]2C(CN3CCN(Cc4ccc(Cl)cc4)CC3)=CC[C@H]12.Cl.Cl  58.7%
9. COC(=O)C1=CN(C(C)C)C(=O)[C@@H]2C(CN3CCN(Cc4cccc(C(F)(F)F)c4)CC3)=CC[C@H]12.Cl.Cl  58.7%
10. COC(=O)C1=CN(C)C(=O)[C@@H]2C(CN3CCN(Cc4ccccc4)CC3)=CC[C@H]12.Cl.Cl  58.6%

system: Cortical neurone; assay: as §1, with “1” for “0.1”; type: functional

In order of falling Activity:
1. COC(=O)C1=CN(C)C(=O)[C@@H]2C(CN3CCN(Cc4cccc(C(F)(F)F)c4)CC3)=CC[C@H]12.Cl.Cl  72.5%
2. COC(=O)C1=CN(C)C(=O)[C@@H]2C(CN3CCN(Cc4ccc(C(F)(F)F)cc4)CC3)=CC[C@H]12.Cl.Cl  72.2%
3. COC(=O)C1=CN(C(C)C)C(=O)[C@@H]2C(CN3CCN(Cc4cccc(C(F)(F)F)c4)CC3)=CC[C@H]12.Cl.Cl  71.6%
4. COC(=O)C1=CN(C(C)C)C(=O)[C@@H]2C(CN3CCN(Cc4cccc(C)c4)CC3)=CC[C@H]12.Cl.Cl  71.3%
5. COC(=O)C1=CN(C)C(=O)[C@@H]2C(CN3CCN(Cc4ccc(Cl)cc4)CC3)=CC[C@H]12.Cl.Cl  71%
6. COC(=O)C1=CNC(=O)[C@@H]2C(CO)=CC[C@H]12  69.4%
7. COC(=O)C1=CN(C)C(=O)[C@@H]2C(CN3CCN(Cc4cccc(C)c4)CC3)=CC[C@H]12.Cl.Cl  66.7%
8. COC(=O)C1=CN(C(C)C)C(=O)[C@@H]2C(CN3CCN(Cc4ccc(Cl)cc4)CC3)=CC[C@H]12.Cl.Cl  64.3%
9. COC(=O)C1=CN(C)C(=O)[C@@H]2C(CN3CCN(Cc4ccccc4)CC3)=CC[C@H]12.Cl.Cl  63.7%
10. COC(=O)C1=CN(C(C)C)C(=O)[C@@H]2C(CN3CCN(Cc4cccc(OC)c4)CC3)=CC[C@H]12.Cl.Cl  62.1%

system: Cortical neurone; assay: as §1, with “10” for “0.1”; type: functional

In order of falling Activity:
1. COC(=O)C1=CN(C(C)C)C(=O)[C@@H]2C(CN3CCN(Cc4cccc(C(F)(F)F)c4)CC3)=CC[C@H]12.Cl.Cl  85.5%
2. COC(=O)C1=CN(C(C)C)C(=O)[C@@H]2C(CN3CCN(Cc4cccc(C)c4)CC3)=CC[C@H]12.Cl.Cl  84.8%
3. COC(=O)C1=CN(C)C(=O)[C@@H]2C(CN3CCN(Cc4ccc(C(F)(F)F)cc4)CC3)=CC[C@H]12.Cl.Cl  80.9%
4. COC(=O)C1=CN(C)C(=O)[C@@H]2C(CN3CCN(Cc4cccc(C(F)(F)F)c4)CC3)=CC[C@H]12.Cl.Cl  80.3%
5. COC(=O)C1=CN(C)C(=O)[C@@H]2C(CN3CCN(Cc4ccc(Cl)cc4)CC3)=CC[C@H]12.Cl.Cl  80.1%
6. COC(=O)C1=CNC(=O)[C@@H]2C(CO)=CC[C@H]12  79.3%
7. COC(=O)C1=CN(C)C(=O)[C@@H]2C(CN3CCN(Cc4ccccc4)CC3)=CC[C@H]12.Cl.Cl  72.3%
8. COC(=O)C1=CN(C(C)C)C(=O)[C@@H]2C(CN3CCN(Cc4ccc(Cl)cc4)CC3)=CC[C@H]12.Cl.Cl  71.9%
9. COC(=O)C1=CN(C)C(=O)[C@@H]2C(CN3CCN(Cc4cccc(C)c4)CC3)=CC[C@H]12.Cl.Cl  71.9%
10. COC(=O)C1=CN(C(C)C)C(=O)[C@@H]2C(CN3CCN(Cc4cccc(OC)c4)CC3)=CC[C@H]12.Cl.Cl  64%

system: not listed separately; assay: Neuroprotective activity against H2O2-induced neurotoxicity in Sprague-Dawley rat hippocampal neuron assessed as cell survival rate at 0.1 uM incubated for 24 hrs in presence of 150 uM H2O2 by MTT assay (reference value: 41.6 to 43.2 %); type: functional, Hippocampal neurone

With `COC(=O)C1=CNC(=O)[C@@H]2C(CO)=CC[C@H]12` the Activity was 59%.

system: not listed separately; assay: Neuroprotective activity against H2O2-induced neurotoxicity in Sprague-Dawley rat hippocampal neuron assessed as cell survival rate at 1 uM incubated for 24 hrs in presence of 150 uM H2O2 by MTT assay (reference value: 41.6 to 43.2 %); type: functional, Hippocampal neurone

`COC(=O)C1=CNC(=O)[C@@H]2C(CO)=CC[C@H]12` gave an Activity of 65.8%.

system: not listed separately; assay: Neuroprotective activity against H2O2-induced neurotoxicity in Sprague-Dawley rat hippocampal neuron assessed as cell survival rate at 10 uM incubated for 24 hrs in presence of 150 uM H2O2 by MTT assay (reference value: 41.6 to 43.2 %); type: functional, Hippocampal neurone

`COC(=O)C1=CNC(=O)[C@@H]2C(CO)=CC[C@H]12` gave an Activity of 70.9%.
